Like-named read-outs stand apart in the source and are kept apart here.
Experiments:
[1] = rcm bond, 15-membered ring, Hoveyda-Grubbs II (5 mol%), DCE, 80.0 °C
[2] = test system: HCV genotype 1a (H77 strain) replicon in HUH-7 cells; test: HCV replicon luciferase reporter assay, genotype 1a; type: cell-based; conditions: Hepatitis C virus, 72 h, genotype 1a replicon, 3 days incubation, read-out: LE_1a (EC50, range)
In short: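 Stable HUH-7 line carrying luciferase-reporter genotype 1a (H77) replicon with adaptive NS3 P1496L and NS5A S2204I mutations; 3.0×10^3 cells/well in 4% FCS, 0.5% DMSO, twenty-point 3-fold titration, 3 days at 37 °C. Renilla luminescence with 7.5 μM EnduRen; EC50 by four-parameter logistic fit; CC50 by multiplexed Cell Titer-Blue.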

[3] = test system: HCV genotype 1b (Con1) replicon in HUH-7 cells; test: HCV replicon luciferase reporter assay, genotype 1b; type: cell-based; conditions: Hepatitis C virus, 72 h, genotype 1b replicon, 3 days incubation, read-out: LE_1b (EC50, range)
In short: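 Replication was read as Renilla luciferase signal, using 7.5 μM EnduRen substrate with a 2-h incubation at 37 °C. The signal came from a HUH-7 line constitutively expressing a luciferase-tagged 1b (Con1) replicon carrying S1179I.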

[4] = from C=CCC[C@@H](C)O[C@@H](C)C(NC(=O)OC(C)(C)C)C(=O)N1C[C@H](Oc2nccc3cc(OC)ccc23)C[C@H]1C(=O)N[C@]1(C(=O)NS(=O)(=O)C2(C)CC2)C[C@H]1C=C; rcm bond; 15-membered ring; Hoveyda-Grubbs II (5 mol%); DCE; 7.2 mM; 80.0 °C; 2.0 h

## CC[C@@H]1OCCC/C=C\[C@@H]2C[C@@]2(C(=O)NS(=O)(=O)C2(C)CC2)NC(=O)[C@@H]2C[C@@H](O)CN2C(=O)[C@H]1NC(=O)OC(C)(C)C
[1]; from C=CCCCO[C@@H](CC)[C@H](NC(=O)OC(C)(C)C)C(=O)N1C[C@H](O)C[C@H]1C(=O)N[C@]1(C(=O)NS(=O)(=O)C2(C)CC2)C[C@H]1C=C, 7.5 mM, 74.0 h
  ring closure, isolated yield: 22%

## CC[C@@H]1O[C@H](C)CC/C=C\[C@@H]2C[C@@]2(C(=O)NS(=O)(=O)C2(CF)CC2)NC(=O)[C@@H]2C[C@@H](O)CN2C(=O)[C@H]1NC(=O)OC(C)(C)C
[1]; from C=CCC[C@@H](C)O[C@@H](CC)[C@H](NC(=O)OC(C)(C)C)C(=O)N1C[C@H](O)C[C@H]1C(=O)N[C@]1(C(=O)NS(=O)(=O)C2(CF)CC2)C[C@H]1C=C, 9.2 mM, 16.0 h
  ring closure, isolated yield: 22%

## CC[C@@H]1O[C@H](C)CC/C=C\[C@@H]2C[C@@]2(C(=O)NS(=O)(=O)C2CC2)NC(=O)[C@@H]2C[C@@H](O)CN2C(=O)[C@H]1NC(=O)OC(C)(C)C
[1]; from C=CCC[C@@H](C)O[C@@H](CC)[C@H](NC(=O)OC(C)(C)C)C(=O)N1C[C@H](O)C[C@H]1C(=O)N[C@]1(C(=O)NS(=O)(=O)C2CC2)C[C@H]1C=C, 9.8 mM, 4.0 h
  ring closure, isolated yield: 54%

## CC[C@@H]1O[C@H](C)CCC=C[C@@H]2C[C@@]2(C(=O)NS(=O)(=O)C2(C)CC2)NC(=O)[C@@H]2C[C@@H](O)CN2C(=O)[C@H]1NC(=O)OC(C)(C)C
[1]; from C=CCC[C@@H](C)O[C@@H](CC)[C@H](NC(=O)OC(C)(C)C)C(=O)N1C[C@H](O)C[C@H]1C(=O)N[C@]1(C(=O)NS(=O)(=O)C2(C)CC2)C[C@H]1C=C, 8.7 mM, 74.0 h, 5 steps
  ring closure, isolated yield: 10%

## C[C@@H]1CC/C=C\[C@@H]2C[C@@]2(C(=O)NS(=O)(=O)C2(C)CC2)NC(=O)[C@@H]2C[C@@H](O)CN2C(=O)[C@@H](NC(=O)OC(C)(C)C)[C@H](C)O1
[1]; from C=CCC[C@@H](C)O[C@@H](C)[C@H](NC(=O)OC(C)(C)C)C(=O)N1C[C@H](O)C[C@H]1C(=O)N[C@]1(C(=O)NS(=O)(=O)C2(C)CC2)C[C@H]1C=C, 8.0 mM, 2.0 h
  ring closure, isolated yield: 24%

## COc1ccc2c(O[C@@H]3C[C@H]4C(=O)N[C@]5(C(=O)NS(=O)(=O)C6(C)CC6)C[C@H]5/C=C\CC[C@@H](C)O[C@@H](C)[C@H](NC(=O)OC(C)(C)C)C(=O)N4C3)nccc2c1 [Compound 2001, tert-butyl ((2R,6S,7S,9R,13aS,14aR,16aS,Z)-2-((6-methoxyisoquinolin-1-yl)oxy)-7,9-dimethyl-14a-(((1-methylcyclopropyl)sulfonyl)carbamoyl)-5,16-dioxo-2,3,5,6,7,9,10,11,13a,14,14a,15,16,16a-tetradecahydro-1H-cyclopropa[i]pyrrolo[1,2-e][1,5,8]oxadiazacyclopentadecin-6-yl)carbamate]
[2]
  EC50: 1.01 to 5 nM
[3]
  EC50: 1.01 to 5 nM
[4]
  ring closure, yield after HPLC: 30%

## CC[C@@H]1O[C@H](C)CC/C=C\[C@@H]2C[C@@]2(C(=O)NS(=O)(=O)C2(C)CC2)NC(=O)[C@@H]2C[C@@H](Oc3nccc4cc(OC)c(F)cc34)CN2C(=O)[C@H]1NC(=O)OC(C)(C)C(F)F [Compound 2616]
[2]
  EC50: 1.01 to 5 nM
[3]
  EC50: 1.01 to 5 nM

## CC[C@@H]1O[C@H](C)CC/C=C\[C@@H]2C[C@@]2(C(=O)NS(=O)(=O)C2(C)CC2)NC(=O)[C@@H]2C[C@@H](Oc3ncc(OC)c4ccc(F)cc34)CN2C(=O)[C@H]1NC(=O)OC(C)(C)C(F)F [Compound 2617, 1,1-difluoro-2-methylpropan-2-yl ((2R,6S,7S,9R,13aS,14aR,16aS,Z)-7-ethyl-2-((7-fluoro-4-methoxyisoquinolin-1-yl)oxy)-9-methyl-14a-(((1-methylcyclopropyl)sulfonyl)carbamoyl)-5,16-dioxo-2,3,5,6,7,9,10,11,13a,14,14a,15,16,16a-tetradecahydro-1H-cyclopropa[i]pyrrolo[1,2-e][1,5,8]oxadiazacyclopentadecin-6-yl)carbamate]
[2]
  EC50: 0.1 to 0.5 nM
[3]
  EC50: 0.51 to 1 nM

## CC[C@@H]1O[C@H](C)CC/C=C\[C@@H]2C[C@@]2(C(=O)NS(=O)(=O)C2(C)CC2)NC(=O)[C@@H]2C[C@@H](Oc3ncc(OC)c4ccccc34)CN2C(=O)[C@H]1NC(=O)OC(C)(C)C(F)F [Compound 2618, 1,1-difluoro-2-methylpropan-2-yl ((2R,6S,7S,9R,13aS,14aR,16aS,Z)-7-ethyl-2-((4-methoxyisoquinolin-1-yl)oxy)-9-methyl-14a-(((1-methylcyclopropyl)sulfonyl)carbamoyl)-5,16-dioxo-2,3,5,6,7,9,10,11,13a,14,14a,15,16,16a-tetradecahydro-1H-cyclopropa[i]pyrrolo[1,2-e][1,5,8]oxadiazacyclopentadecin-6-yl)carbamate]
[2]
  EC50: 0.1 to 0.5 nM
[3]
  EC50: 0.1 to 0.5 nM
